Source: paper PMC9229843, “Cancer-Related Somatic Mutations in Transmembrane Helices Alter Adenosine A1 Receptor Pharmacology” (Molecules, 2022)
Numbering of substitutions follows the chain as printed.

What was measured:
Assay in all cases: [3H]DPCPX radioligand displacement assay, CHO membranes
Format in all cases: binding
Set-up in all cases: expressed in transfected cells; host or cells: CHO cells, transient; membranes
Details in all cases: fraction of high-affinity state; two-site model
hA1AR S246T^6.47 = target: T1, hA1AR S246T^6.47 (Homo sapiens, UniProt P30542, S246T)
T1 sequence (P30542 1-326 S246T): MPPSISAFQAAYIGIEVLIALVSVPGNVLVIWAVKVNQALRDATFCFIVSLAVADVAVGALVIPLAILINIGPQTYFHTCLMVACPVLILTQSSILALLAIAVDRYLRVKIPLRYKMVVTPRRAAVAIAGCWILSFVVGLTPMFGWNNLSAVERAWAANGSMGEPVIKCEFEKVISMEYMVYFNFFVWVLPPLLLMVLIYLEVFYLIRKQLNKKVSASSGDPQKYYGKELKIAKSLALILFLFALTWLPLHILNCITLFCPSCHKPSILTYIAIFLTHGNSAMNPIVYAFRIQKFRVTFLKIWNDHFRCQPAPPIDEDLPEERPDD
Protocol: (§1) Transient transfection of CHO cells with wild type or mutated hA1AR plasmid constructs was performed using a polyethylenimine (PEI) method. Cells were seeded in 10-cm culture dishes to achieve 50–60% confluency 24 h prior to transfection. On the day of transfection, cells were transfected with a PEI: DNA ratio of 3:1 and a plasmid DNA amount of 10 μg/dish. Moreover, 24 h post-transfection, the medium was refreshed, and 48 h after transfection, cells were collected and membranes were prepared as previously described. Membranes were aliquoted in 250 or 100 μL and stored at −80 °C. Membrane protein concentrations were determined using the BCA method.
(§2) The displacement assays were performed as described previously. […] Note, the number of cell membranes (10–25 µg) was adjusted to obtain (approximately) a 1500 DPM assay window for each mutant. […] Incubations were terminated after 1 h at 25 °C by rapid vacuum filtration through GF/B filter plates (PerkinElmer, Groningen, Netherlands) using a Perkin Elmer Filtermate-harvester. Afterward, filter plates were washed ten times with ice-cold buffer (50 mM Tris-HCl, pH 7.4) and dried at 55 °C for 30 min. After the addition of 25 µL per well of the Microscint scintillation cocktail (PerkinElmer, Groningen, The Netherlands), the filter-bound radioactivity was measured by scintillation spectrometry in a Microbeta2® 2450 microplate counter (PerkinElmer).
(§3) All experimental data were analyzed by GraphPad Prism 7.0 or 8.0 (GraphPad Software Inc., San Diego, CA, USA). Data from yeast liquid growth and [^35S]GTPγS binding assays were analyzed by non-linear regression using “log (agonist) vs. response (three parameters)” or “log (inhibitor) vs. response (three parameters)” to obtain potency (EC50), inhibitory potency (IC50), and efficacy (Emax or Imax) values. The radioligand displacement curves were obtained from a statistically preferred one-site or two-site binding model. pKi values were calculated from pIC50 values using the Cheng–Prusoff equation, where KD values were obtained from the homologous competition assays from this study and calculated by non-linear regression using “one site–homologous” [62].

hA1AR W188C^5.46 = target: T2, hA1AR W188C^5.46 (Homo sapiens, UniProt P30542, W188C)
T2 sequence (P30542 1-326 W188C): T1 sequence (P30542 1-326 S246T) with W188C, T246S
Protocol: as §1, §2, §3

hA1AR L134F^4.52 = target: T3, hA1AR L134F^4.52 (Homo sapiens, UniProt P30542, L134F)
T3 sequence (P30542 1-326 L134F): T1 sequence (P30542 1-326 S246T) with L134F, T246S
Protocol: as §1, §2, §3

hA1AR H78L^3.23 = target: T4, hA1AR H78L^3.23 (Homo sapiens, UniProt P30542, H78L)
T4 sequence (P30542 1-326 H78L): T1 sequence (P30542 1-326 S246T) with H78L, T246S
Protocol: as §1, §2, §3

OC[C@H]1O[C@@H](n2cnc3c(NC4CCCC4)ncnc32)[C@H](O)[C@@H]1O [CPA, N^6-cyclopentyladenosine]
Fraction (High) (hA1AR S246T^6.47): 0.26 ± 0.03 | Fraction (High) (hA1AR W188C^5.46): 0.29 ± 0.01 | Fraction (High) (hA1AR L134F^4.52): 0.34 ± 0.03 | Fraction (High) (hA1AR H78L^3.23): 0.33 ± 0.04
